Test results: patent US20070088021A1, “4-haloisoquinoline derivative and drug containing the same” (priority 2005, published 2007)
Structures can show the parent of a compound that is named as a salt.

What was measured:
Rho kinase [1] = conditions: order of magnitude stated in background; cited from earlier work
Rho kinase [2] = target: T1, Rho kinase; assay: Rho-kinase assay (measurement of kinase inhibitory activity); type: biochemical; conditions: method of Patent Document 1
T1 construct: IC50 for Rho kinase
Description: A Rho-kinase assay was performed according to the method described in Patent Document 1, and the 50% inhibitory concentration (hereinafter referred to as the “IC50 value”) for Rho kinase was calculated.

| Structure (SMILES) | IC50 (Rho kinase [2]) [µM] | 50% inhibitory concentration (IC50) for Rho kinase (Rho kinase [1]) |
| --- | --- | --- |
| Cc1cncc2cccc(S(=O)(=O)N3CCCNC[C@@H]3C)c12.Cl [(S)-(+)-hexahydro-2-methyl-1-(4-methyl-5-isoquinolinesulfonyl)-1H-1,4-diazepine hydrochloride] | – | 1/100 |
| C[C@H]1CNCCCN1S(=O)(=O)c1cccc2cncc(Br)c12 [Dihydrochloride of Compound (1) X = Br, 2-(S)-1-(4-bromoisoquinoline-5-sulfonyl)-2-methylhomopiperazine] | 0.0058 | – |
| Cc1cncc2cccc(S(=O)(=O)N3CCCNC[C@@H]3C)c12 [Reference Compound B, (S)-(+)-hexahydro-2-methyl-1-(4-methyl-5-isoquinolinesulfonyl)-1H-1,4-diazepine hydrochloride, reference compound] | 0.012 | – |

Now from value to compound, other results behind:

| IC50 (Rho kinase [2]) [µM] | Structure (SMILES) | 50% inhibitory concentration (IC50) for Rho kinase (Rho kinase [1]) |
| --- | --- | --- |
| 0.0258 | CC1CNCCCN1S(=O)(=O)c1cccc2cncc(Cl)c12 (centres unmarked) [Dihydrochloride of Compound (1) X = Cl] | – |
| 0.085 | C[C@H]1CNCCCN1S(=O)(=O)c1cccc2cncc(F)c12 [Dihydrochloride of Compound (1) X = F] | – |
